Target: Proto-oncogene tyrosine-protein kinase Src (Homo sapiens, UniProt P12931)
Assay: Homogeneous Time-resolved Fluorescence (HTRF) Assay
Method: Kinase assays were performed using the europium/APC detection format (LANCE, Perkin Elmer). HTRF is based on the proximity of europium cryptate (donor fluorophore)-labeled antiphosphotyrosine and streptavidin labeled with APC(allophycocyanin), which have been brought together by a binding reaction.

Chain of Proto-oncogene tyrosine-protein kinase Src (P12931 2-536 limits assumed): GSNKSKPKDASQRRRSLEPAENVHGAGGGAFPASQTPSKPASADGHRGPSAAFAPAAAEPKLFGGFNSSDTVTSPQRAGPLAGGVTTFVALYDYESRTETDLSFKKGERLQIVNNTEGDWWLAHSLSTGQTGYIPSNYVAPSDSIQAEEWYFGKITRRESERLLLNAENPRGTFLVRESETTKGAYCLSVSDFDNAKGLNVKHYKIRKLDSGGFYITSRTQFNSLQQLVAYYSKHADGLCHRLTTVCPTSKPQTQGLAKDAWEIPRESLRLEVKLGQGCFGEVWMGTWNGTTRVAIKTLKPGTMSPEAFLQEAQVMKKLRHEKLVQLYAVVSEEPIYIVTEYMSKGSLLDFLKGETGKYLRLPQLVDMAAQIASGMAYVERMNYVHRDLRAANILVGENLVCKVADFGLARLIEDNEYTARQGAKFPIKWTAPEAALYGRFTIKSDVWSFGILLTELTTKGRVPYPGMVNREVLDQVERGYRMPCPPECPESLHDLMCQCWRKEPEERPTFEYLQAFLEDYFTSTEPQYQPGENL

IC50 [nM] | Structure (SMILES)
1000 | N#Cc1cnc2cc(/C=C/c3ccncc3)ccc2c1NCc1cc(Cl)cc(Cl)c1 [4-{[(3,5-dichlorophenyl)methyl]amino}-7-[(E)-2-(pyridin-4-yl)ethenyl]quinoline-3-carbonitrile]
11 | COc1cc2c(Nc3cc(OC)c(OC)c(OC)c3)c(C#N)cnc2cc1/C=C/c1cc[n+]([O-])cc1 [4-[(E)-2-{3-cyano-6-methoxy-4-[(3,4,5-trimethoxyphenyl)amino]quinolin-7-yl}ethenyl]-1-oxidopyridin-1-ium]
